Common to all, as to format: functional, organism-based
The test system of assay [1] is Plasmodium falciparum. Nature of the assay: In vitro antimalarial activity against Plasmodium falciparum D6 Sierra Leone.
In assay [2] the test system is Plasmodium falciparum. Kind of assay: In vitro antimalarial activity against Plasmodium falciparum D6 Sierra Leone relative to artemisinin.
The test system of assay [3] is Plasmodium falciparum. Kind of assay: In vitro antimalarial activity against Plasmodium falciparum W-2 (Indochina).
Assay [4] relates to Plasmodium falciparum. Kind of assay: In vitro antimalarial activity relative to artemisinin against Plasmodium falciparum W-2 (Indochina).
In assay [5] the test system is Plasmodium falciparum. Kind of assay: In vitro antimalarial activity against Plasmodium falciparum D-6 Sierra Leone relative to artemisinin; Not active <= 5000 ng/mL.
For assay [6], the system named is Plasmodium falciparum. Nature of the assay: In vitro antimalarial activity against Plasmodium falciparum D6 (Sierra Leone); Not active <= 5000 ng/mL.
Assay [7] concerns Plasmodium falciparum. Kind of assay: In vitro antimalarial activity against Plasmodium falciparum W-2 (Indochina) relative to artemisinin; Not active at <5000 ng/mL.
Assay [8] has as its system Plasmodium falciparum. Kind of assay: In vitro antimalarial activity relative to artemisinin against Plasmodium falciparum W2 (Indochina); Not active <= 5000 ng/mL.

The IC50 is the concentration that inhibits the measured activity by half. Lower therefore signals greater potency.

≈ marks a conversion by molar mass, not a printed value.

As for `C[C@@H]1CCC2[C@]34OO[C@](C)(CCC13)O[C@H]4O[C@H](OO)[C@@]21CO1` (stereo partly drawn), the IC50 in the assay on Plasmodium falciparum [1] is 2.8 ng/mL (≈ 0.00891 µM); with Plasmodium falciparum [3], 4.5 ng/mL (≈ 0.0143 µM). The IC50 ratio in the assay with Plasmodium falciparum [2] turned out to be 1.3; with Plasmodium falciparum [4] it was 4.2.
As for `C=C1C(=O)O[C@@H]2O[C@@]3(C)CC[C@H]4[C@H](C)CC[C@@H]1[C@@]24OO3` [ARTEMISITENE], the IC50 in the assay with Plasmodium falciparum [1] amounted to 5.3 ng/mL (≈ 0.0189 µM); with Plasmodium falciparum [3] it was 7.44 ng/mL (≈ 0.0265 µM). The IC50 ratio was 2.8 in the assay with Plasmodium falciparum [2] and 7.8 in the assay with Plasmodium falciparum [4].
As to `C[C@@H]1CCC2[C@]34OO[C@](C)(CCC13)O[C@H]4OC(=O)[C@]21CO1` (stereo partly drawn), the IC50 entry with Plasmodium falciparum [5], in the assay with Plasmodium falciparum [6], in the assay on Plasmodium falciparum [7] and in the assay with Plasmodium falciparum [8] was “Not Active” throughout.
For `C[C@@H]1CCC2[C@]34OO[C@](C)(CCC13)O[C@H]4OC(=O)[C@@]2(O)CO` (stereo partly drawn), the IC50 entry in the assay on Plasmodium falciparum [5], in the assay with Plasmodium falciparum [6], in the assay on Plasmodium falciparum [7] and in the assay with Plasmodium falciparum [8] was “Not Active” in each case.
With `C[C@@H]1CCC2[C@H](O)[C@H](O)O[C@@H]3O[C@@]4(C)CCC1[C@@]23OO4` (stereo partly drawn), the 50% inhibitory concentration (IC50) with Plasmodium falciparum [1] was 7.3 ng/mL (≈ 0.0255 µM); in the assay on Plasmodium falciparum [3] it was 7.4 ng/mL (≈ 0.0258 µM). In addition, the IC50 ratio in the assay with Plasmodium falciparum [2] is 3.8; in the assay on Plasmodium falciparum [4] it was 7.6.
Take `C[C@@H]1CCC2[C@]34OO[C@](C)(CCC13)O[C@H]4OC(=O)[C@@]2(Br)CBr` (stereo partly drawn): the IC50 in the assay with Plasmodium falciparum [1] was 77 ng/mL (≈ 0.175 µM); in the assay on Plasmodium falciparum [3], 67 ng/mL (≈ 0.152 µM). For the same compound, the IC50 ratio is 26 with Plasmodium falciparum [2] and 44 in the assay with Plasmodium falciparum [4].
For the compound `C[C@@H]1CCC2[C@@]3(CO3)C(O)O[C@@H]3O[C@@]4(C)CCC1[C@@]23OO4` (stereo partly drawn), the half-inhibitory concentration (IC50) in the assay with Plasmodium falciparum [1] was 1.8 ng/mL (≈ 0.00603 µM); with Plasmodium falciparum [3] it was 3.4 ng/mL (≈ 0.0114 µM). Moreover, the IC50 ratio in the assay with Plasmodium falciparum [2] stood at 0.9; in the assay on Plasmodium falciparum [4], 3.4.
For the compound `C/C=C1\C(=O)O[C@@H]2O[C@@]3(C)CCC4[C@H](C)CC[C@@H]1[C@]42OO3` (stereo partly drawn), the values for the IC50 in the assay on Plasmodium falciparum [1] and with Plasmodium falciparum [3] were 2.1 ng/mL (≈ 0.00713 µM) and 2.3 ng/mL (≈ 0.00781 µM), respectively. Also, the IC50 ratio is 1.1 in the assay on Plasmodium falciparum [2] and 2.3 with Plasmodium falciparum [4].
The like results for `C[C@@H]1CCC2[C@]34OO[C@](C)(CCC13)O[C@H]4O[C@H](OO)[C@]21CO1` (stereo partly drawn) were, in that order, 2 ng/mL (≈ 0.00636 µM), 4 ng/mL (≈ 0.0127 µM), 0.9 and 3.7.
Take `C[C@@H]1CCC2C(=O)C(=O)O[C@@H]3O[C@@]4(C)CCC1[C@@]23OO4` (stereo partly drawn): the concentration for half-maximal inhibition (IC50) in the assay on Plasmodium falciparum [1] worked out at 319 ng/mL (≈ 1.13 µM); in the assay with Plasmodium falciparum [3] it was 278 ng/mL (≈ 0.985 µM). In addition, the results for the IC50 ratio in the assay on Plasmodium falciparum [2] and with Plasmodium falciparum [4] were 169 and 290, respectively.
Turning to `C=C1C2CC[C@@H](C)C3CC[C@@]4(C)OO[C@@]23[C@H](O[C@@H]1OO)O4` (stereo partly drawn), the values for the IC50 in the assay on Plasmodium falciparum [1] and in the assay with Plasmodium falciparum [3] were 4.08 ng/mL (≈ 0.0137 µM) and 8.12 ng/mL (≈ 0.0272 µM), respectively. The IC50 ratio stood at 2 with Plasmodium falciparum [2] and 8 in the assay with Plasmodium falciparum [4].
Take `CSC1=NN=C2C3CC[C@@H](C)C4CC[C@@]5(C)OO[C@@]34[C@H](OC2(O)S1)O5` (stereo partly drawn): the half-inhibitory concentration (IC50) in the assay with Plasmodium falciparum [1] came out at 789 ng/mL (≈ 2.04 µM); in the assay on Plasmodium falciparum [3], 564 ng/mL (≈ 1.46 µM). Also, the figures for the IC50 ratio in the assay with Plasmodium falciparum [2] and with Plasmodium falciparum [4] were 305 and 429, respectively.
Regarding `C[C@@H]1CCC2[C@]34OO[C@](C)(CCC13)O[C@H]4OC(=O)[C@@]21CO1` (stereo partly drawn), the concentration for half-maximal inhibition (IC50) came to 96 ng/mL (≈ 0.324 µM) in the assay with Plasmodium falciparum [1] and 124 ng/mL (≈ 0.418 µM) in the assay with Plasmodium falciparum [3]. Further, the values for the IC50 ratio with Plasmodium falciparum [2] and with Plasmodium falciparum [4] were 48 and 123, respectively.
In the case of `C=C1C2CC[C@@H](C)C3CC[C@@]4(C)OO[C@@]23[C@H](O[C@@H]1O)O4` (stereo partly drawn), the figures for the IC50 in the assay with Plasmodium falciparum [1] and in the assay with Plasmodium falciparum [3] were 119 ng/mL (≈ 0.421 µM) and 232 ng/mL (≈ 0.822 µM), respectively. Besides, the IC50 ratio in the assay on Plasmodium falciparum [2] turned out to be 63; in the assay on Plasmodium falciparum [4] it was 242.
As for `C[C@@H]1CC[C@H]2[C@@H](C)C(=O)O[C@@H]3O[C@@]4(C)CC[C@@H]1[C@]32OO4` [ARTEMISININ], the IC50 is 1.89 ng/mL (≈ 0.00669 µM) in the assay with Plasmodium falciparum [1], 0.95 ng/mL (≈ 0.00336 µM) in the assay with Plasmodium falciparum [3] and 1 ng/mL (≈ 0.00354 µM) in the assay on Plasmodium falciparum [4] (Plasmodium falciparum). Further, in the assay on Plasmodium falciparum [2], the IC50 ratio was determined as 1.
Turning to `C[C@@H]1CCC2C3(CC3)C(=O)O[C@@H]3O[C@@]4(C)CCC1[C@@]23OO4` (stereo partly drawn), the figures for the concentration for half-maximal inhibition (IC50) in the assay with Plasmodium falciparum [1] and in the assay on Plasmodium falciparum [3] were 10 ng/mL (≈ 0.034 µM) and 8.6 ng/mL (≈ 0.0292 µM), respectively. Further, the IC50 ratio came out at 5.2 in the assay on Plasmodium falciparum [2] and 8.6 in the assay with Plasmodium falciparum [4].
Turning to `C[C@@H]1CCC2[C@]34OO[C@](C)(CCC13)O[C@H]4OC(=O)[C@@]21CCN=N1` (stereo partly drawn), the IC50 stood at 604 ng/mL (≈ 1.87 µM) with Plasmodium falciparum [1] and 447 ng/mL (≈ 1.39 µM) in the assay on Plasmodium falciparum [3]. For the same compound, the IC50 ratio in the assay on Plasmodium falciparum [2] stood at 280; in the assay with Plasmodium falciparum [4] it was 408.

The values are drawn from ChEMBL document CHEMBL1126954, “Synthesis and antimalarial activity of some 9-substituted artemisinin derivatives” (J Med Chem, 1993).
